Experimental data reported in patent US20220204510A1, “2,3-DIHYDRO-1H-PYRROLIZINE-7-FORMAMIDE DERIVATIVE AND APPLICATION THEREOF” (CHIA TAI TIANQING PHARMACEUTICAL GROUP CO., LTD., priority 2018, published 2022).
Read-outs that look alike come from different tables or passages of the source.

Legend:
CYP1A2 = biological target: T1, CYP1A2 (Homo sapiens, UniProt P05177); experiment: Inhibition of human liver microsomal cytochrome P450 isoenzymes; type: in vitro ADME; settings: human liver microsomes
T1 construct: from tissue; host or cells: human liver microsomes
T1 sequence (P05177 1-516): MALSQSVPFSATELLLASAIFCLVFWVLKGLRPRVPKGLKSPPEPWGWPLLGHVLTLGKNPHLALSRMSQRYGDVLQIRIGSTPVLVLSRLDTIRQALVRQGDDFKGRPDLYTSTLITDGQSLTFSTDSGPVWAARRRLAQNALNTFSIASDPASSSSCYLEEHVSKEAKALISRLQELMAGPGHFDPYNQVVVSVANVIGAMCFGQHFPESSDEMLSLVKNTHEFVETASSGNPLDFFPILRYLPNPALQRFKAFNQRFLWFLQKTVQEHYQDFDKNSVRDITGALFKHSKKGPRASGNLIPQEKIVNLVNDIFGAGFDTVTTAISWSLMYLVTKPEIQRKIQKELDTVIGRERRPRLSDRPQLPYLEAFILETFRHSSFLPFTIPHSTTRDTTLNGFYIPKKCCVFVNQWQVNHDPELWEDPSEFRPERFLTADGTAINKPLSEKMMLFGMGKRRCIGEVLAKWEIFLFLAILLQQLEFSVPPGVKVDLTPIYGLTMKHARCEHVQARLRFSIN
Method: (§1) Experimental objective: to determine the inhibitory effect of the test compound on the activity of human liver microsomal cytochrome P450 isoenzymes (CYP1A2, CYP2C9, CYP2C19, CYP2D6 and CYP3A4). Experimental procedures: first, the test compound (10 mM) was diluted in gradient to prepare working solutions (100× final concentration) at concentrations of: 5, 1.5, 0.5, 0.15, 0.05, 0.015, and 0.005 mM, and working solutions of positive inhibitors for P450 isoenzymes (CYP1A2, CYP2C9, CYP2C19, CYP2D6, and CYP3A4) and the specific substrate mixtures thereof (5 in 1) were prepared simultaneously; human liver microsomes frozen in a−80° C. refrigerator were thawed on ice, and after all thawed, the human liver microsomes were diluted with PB to prepare a working solution at a specific concentration (0.253 mg/mL); 20 μL of the substrate mixture (20 μL of PB was added into the blank well) and 158 μL of the working solution of human liver microsomes were added into the reaction plate which was then placed on ice for use; then 2 μL of the test compound at each concentration (N=1) and a specific inhibitor (N=2) were added into the corresponding well, and the group without the inhibitor (test compound or the positive inhibitor) was added with a corresponding organic solvent as a control sample (the test compound control sample was 1:1 DMSO:MeOH; the positive control sample was 1:9 DMSO:MeOH); after pre-incubation under a 37° C. water bath for 10 min, 20 μL of a coenzyme factor (NADPH) solution was added into the reaction plate and incubated under a 37° C. water bath for 10 min, 400 μL of a cold acetonitrile solution (the internal standard was 200 ng/mL Tolbutamide and Labetalol) was added to terminate the reaction, and the reaction plate was placed on a shaker and shaken for 10 min; after centrifugation at 4,000 rpm for 20 min, 200 μL of the supernatant was collected and added to 100 μL of water to dilute the sample, and, finally, the plate was sealed, oscillated shaken evenly, and subjected to LC/MS/MS detection.

CYP2C19 = biological target: T2, CYP2C19 (Homo sapiens, UniProt P33261); experiment: as above; type: in vitro ADME; settings: human liver microsomes
T2 construct: from tissue; host or cells: human liver microsomes
T2 sequence (P33261 whole entry): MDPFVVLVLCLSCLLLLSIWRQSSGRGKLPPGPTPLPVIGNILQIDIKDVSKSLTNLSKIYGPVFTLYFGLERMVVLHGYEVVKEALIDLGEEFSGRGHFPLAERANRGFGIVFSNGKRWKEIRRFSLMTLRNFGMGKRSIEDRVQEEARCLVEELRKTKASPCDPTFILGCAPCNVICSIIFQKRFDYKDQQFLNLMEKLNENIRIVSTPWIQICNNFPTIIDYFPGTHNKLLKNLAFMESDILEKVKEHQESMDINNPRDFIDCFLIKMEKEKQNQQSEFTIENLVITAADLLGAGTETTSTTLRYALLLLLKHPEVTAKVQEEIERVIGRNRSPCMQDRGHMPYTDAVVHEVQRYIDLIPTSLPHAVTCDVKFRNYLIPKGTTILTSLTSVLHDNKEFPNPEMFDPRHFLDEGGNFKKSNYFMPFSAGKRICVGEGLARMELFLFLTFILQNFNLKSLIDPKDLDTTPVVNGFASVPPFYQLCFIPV
Method: as §1

CYP2C9 = biological target: T3, CYP2C9 (Homo sapiens, UniProt P11712); experiment: as above; type: in vitro ADME; settings: human liver microsomes
T3 construct: from tissue; host or cells: human liver microsomes
T3 sequence (P11712 whole entry): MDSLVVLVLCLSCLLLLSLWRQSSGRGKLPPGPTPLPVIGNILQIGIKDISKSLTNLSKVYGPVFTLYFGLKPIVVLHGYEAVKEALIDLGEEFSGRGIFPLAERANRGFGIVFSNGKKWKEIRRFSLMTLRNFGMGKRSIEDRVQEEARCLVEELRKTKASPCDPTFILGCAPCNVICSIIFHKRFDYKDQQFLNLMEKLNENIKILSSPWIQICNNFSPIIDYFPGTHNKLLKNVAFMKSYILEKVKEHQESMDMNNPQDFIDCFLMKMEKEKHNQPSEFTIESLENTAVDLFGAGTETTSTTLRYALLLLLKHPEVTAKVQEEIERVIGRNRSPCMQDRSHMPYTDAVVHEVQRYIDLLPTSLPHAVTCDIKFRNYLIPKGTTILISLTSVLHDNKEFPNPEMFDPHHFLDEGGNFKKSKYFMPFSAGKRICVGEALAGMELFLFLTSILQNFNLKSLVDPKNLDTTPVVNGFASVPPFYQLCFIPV
Method: as §1

CYP2D6 = biological target: T4, CYP2D6 (Homo sapiens, UniProt P10635); experiment: as above; type: in vitro ADME; settings: human liver microsomes
T4 construct: from tissue; host or cells: human liver microsomes
T4 sequence (P10635 whole entry): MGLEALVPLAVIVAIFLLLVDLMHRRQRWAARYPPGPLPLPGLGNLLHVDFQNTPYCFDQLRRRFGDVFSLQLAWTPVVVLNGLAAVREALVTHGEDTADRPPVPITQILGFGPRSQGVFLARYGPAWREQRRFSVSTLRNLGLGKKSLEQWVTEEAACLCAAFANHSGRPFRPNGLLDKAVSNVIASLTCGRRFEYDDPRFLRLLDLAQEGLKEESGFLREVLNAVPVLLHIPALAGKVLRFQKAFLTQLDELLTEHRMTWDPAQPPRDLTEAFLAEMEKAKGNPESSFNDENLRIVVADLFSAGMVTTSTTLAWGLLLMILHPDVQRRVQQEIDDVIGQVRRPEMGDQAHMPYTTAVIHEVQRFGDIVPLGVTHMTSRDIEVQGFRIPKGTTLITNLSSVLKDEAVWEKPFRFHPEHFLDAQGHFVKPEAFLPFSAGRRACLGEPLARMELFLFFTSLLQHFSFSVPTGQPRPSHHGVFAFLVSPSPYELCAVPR
Method: as §1

CYP3A4 = biological target: T5, CYP3A4 (Homo sapiens, UniProt P08684); experiment: as above; type: in vitro ADME; settings: human liver microsomes
T5 construct: from tissue; host or cells: human liver microsomes
T5 sequence (P08684 whole entry): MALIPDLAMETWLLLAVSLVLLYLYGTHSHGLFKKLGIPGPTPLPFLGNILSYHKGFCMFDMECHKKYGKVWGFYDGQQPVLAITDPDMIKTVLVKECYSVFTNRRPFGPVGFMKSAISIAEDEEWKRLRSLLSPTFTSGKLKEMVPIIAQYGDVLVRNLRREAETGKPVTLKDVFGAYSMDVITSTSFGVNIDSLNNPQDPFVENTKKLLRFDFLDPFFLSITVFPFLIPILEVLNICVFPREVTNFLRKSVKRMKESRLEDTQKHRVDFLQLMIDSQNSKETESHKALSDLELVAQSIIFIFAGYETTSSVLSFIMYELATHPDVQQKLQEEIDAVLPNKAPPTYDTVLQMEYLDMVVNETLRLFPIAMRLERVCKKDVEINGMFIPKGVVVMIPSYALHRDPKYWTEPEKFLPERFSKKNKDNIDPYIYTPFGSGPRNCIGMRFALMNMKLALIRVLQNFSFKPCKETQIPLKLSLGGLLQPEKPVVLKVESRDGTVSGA
Method: as §1

[1] = Metabolic stability in liver microsomes; type: in vitro ADME; settings: mouse, CD-1 mice liver microsomes; for half-life at 1 μM: 1 μM compound, 0.5 mg/mL; for microsomal CLint at 1 μM: read-out: CLint(mic)
Method: (§2) Experimental objective: to evaluate the metabolic stability of the test compound in CD-1 mice and human liver microsomes
(§3) Experimental procedures: first, the test compound (10 mM) was subjected to a two-step dilution, where the compound was diluted to an intermediate concentration of 100 μM with 100% methanol, and the working solution was diluted to 10 μM with a potassium phosphate buffer; eight 96-well incubation plates were prepared, and named T0, T5, T10, T20, T30, T60, Blank and NCF60, respectively; the reaction time points corresponding to the first 6 incubation plates were 0, 5, 10, 20, 30 and 60 min, respectively; for the Blank plate, neither the test compound nor a control compound was added, and for the NCF60 plate, potassium phosphate buffer was used in an incubation of 60 min in place of a NADPH regeneration system solution; 10 μL of the test compound working solution and 80 μL of the microsome working solution (liver microsome protein concentration was 0.625 mg/mL) were added to the T0, T5, T10, T20, T30, T60 and NCF60 plates, while only the microsome working solution was added to the Blank plate, and all the incubation plates were then placed in a 37° C. water bath for pre-incubation for about 10 min; after the pre-incubation, 10 μL of a NADPH regeneration system working solution was added into each sample well of all the plates except the NCF60 plate and T0 plate to start the reaction, and 10 μL of potassium phosphate buffer was added to each well of the NCF60 plate; therefore, in the test compound or control compound samples, the final reaction concentrations of the compound, testosterone, diclofenac and propafenone were 1 μM, the concentration of the liver microsomes was 0.5 mg/mL, and the final concentrations of DMSO and acetonitrile in the reaction system were 0.01% (v/v) and 0.99% (v/v), respectively; after incubation for an appropriate time (such as 5, 10, 20, 30, and 60 min), 300 μL of a stop solution (acetonitrile solution containing 100 ng/mL tolbutamide and 100 ng/mL labetalol) was added to each sample well to stop the reaction; 300 μL of the stop solution and then 10 μL of the NADPH working solution were added to the T0 plate, all the sample plates were shaken and centrifuged in a centrifuge (3220×g) for 20 min, and then 100 μL of supernatant was taken from each well and diluted with 300 μL of pure water for liquid chromatography-tandem mass spectrometry analysis.

[2] = Metabolic stability in liver microsomes; type: in vitro ADME, human; settings: for half-life at 1 μM: Human liver microsomes, 1 μM compound, 0.5 mg/mL; for CLint scaled at 1 μM / microsomal CLint at 1 μM: human liver microsomes; for microsomal CLint at 1 μM: read-out: CLint(mic)
Method: as §2, §3

[3] = Metabolic stability in liver microsomes; type: in vitro ADME; settings: for half-life at 1 μM: 1 μM compound, 0.5 mg/mL; for microsomal CLint at 1 μM: read-out: CLint(mic)
Method: Experimental objective: to evaluate the metabolic stability of test compounds 18 and 25 in liver microsomes of rats, beagle dogs and cynomolgus monkeys
as §3

[4] = Sprague-Dawley (SD), rat, SD rats liver microsomes
[5] = cynomolgus monkey, Cynomolgus monkeys liver microsomes
[6] = dog, Beagle dogs liver microsomes

In the case of `C[C@]1(NC(=O)C(=O)c2c(Cl)c(C(=O)Nc3ccc(F)c(F)c3)c3n2CCC3)CC[C@H](CC(=O)O)CC1` [Compound 18], the IC50 (CYP1A2) is reported as over 50 µM, the IC50 (CYP2C19) is reported as over 50 µM and the IC50 (CYP2C9) is reported as over 50 µM. For the same molecule, the IC50 (CYP2D6) was over 50 µM, the IC50 (CYP3A4) was over 50 µM and the CLint scaled at 1 μM [1] was under 38 mL/min/kg. The half-life at 1 μM [1] was over 2.42 h, the microsomal CLint at 1 μM [1] was under 9.6 µL/min/mg and the half-life at 1 μM [2] was over 2.42 h. For the same molecule, the CLint scaled at 1 μM [2] was under 8.6 mL/min/kg, the microsomal CLint at 1 μM [2] was under 9.6 µL/min/mg and the CLint scaled at 1 μM [3, 4] was under 17.3 mL/min/kg. The half-life at 1 μM [3, 4] was over 2.42 h, the microsomal CLint at 1 μM [3, 4] was under 9.6 µL/min/mg and the CLint scaled at 1 μM [3, 5] was under 13 mL/min/kg. It also gave a half-life at 1 μM [3, 5] of over 2.42 h, a microsomal CLint at 1 μM [3, 5] of under 9.6 µL/min/mg and a CLint scaled at 1 μM [3, 6] of under 13.8 mL/min/kg. It also gave a half-life at 1 μM [3, 6] of over 2.42 h and a microsomal CLint at 1 μM [3, 6] of under 9.6 µL/min/mg.

Molecule `C[C@]1(NC(=O)C(=O)c2c(Cl)c(C(=O)Nc3cc(F)c(F)c(F)c3)c3n2CCC3)CC[C@H](CC(=O)O)CC1` [Compound 25] has an IC50 (CYP1A2) of over 50 µM, an IC50 (CYP2C19) of over 50 µM and an IC50 (CYP2C9) of over 50 µM. For the same molecule, the IC50 (CYP2D6) was over 50 µM, the IC50 (CYP3A4) was over 50 µM and the CLint scaled at 1 μM [1] was under 38 mL/min/kg. For the same molecule, the half-life at 1 μM [1] was over 2.42 h, the microsomal CLint at 1 μM [1] was under 9.6 µL/min/mg and the half-life at 1 μM [2] was over 2.42 h. For the same molecule, the CLint scaled at 1 μM [2] was under 8.6 mL/min/kg, the microsomal CLint at 1 μM [2] was under 9.6 µL/min/mg and the CLint scaled at 1 μM [3, 4] was under 17.3 mL/min/kg. For the same molecule, the half-life at 1 μM [3, 4] was over 2.42 h, the microsomal CLint at 1 μM [3, 4] was under 9.6 µL/min/mg and the CLint scaled at 1 μM [3, 5] was under 13 mL/min/kg. The half-life at 1 μM [3, 5] was over 2.42 h, the microsomal CLint at 1 μM [3, 5] was under 9.6 µL/min/mg and the CLint scaled at 1 μM [3, 6] was under 13.8 mL/min/kg. The half-life at 1 μM [3, 6] was over 2.42 h and the microsomal CLint at 1 μM [3, 6] was under 9.6 µL/min/mg.
